We go through 29 molecules from patent US10538521B2, “Pyrimidine derivative having antimalarial activity” (CARNA BIOSCIENCES, INC., priority 2016, dated 2020).

The term IC50 denotes the point on the concentration scale where inhibition reaches its midpoint.

The subject of assay [1] is FCR3 strain, a drug sensitive strain of Plasmodium falciparum. The assay is described as follows: In vitro antimalarial assay (p-LDH, Malstat), FCR3 strain. The format is cell-based. Conditions: P. falciparum FCR3 (drug sensitive), 72 h culture, p-LDH readout, read-out: Antimalarial activity (IC50 value), Strain FCR3. The gist of the method:
(§1)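 IC50 derived from concentration-response of parasite lactate dehydrogenase signal (Malstat reagent, NBT/PES formazan at 655 nm) after freeze-thaw lysis. Infected erythrocytes (hematocrit 2%, parasitaemia 0.5 or 1%) exposed 72 h to 12.5–0.0001 μM final compound under 3% O2-4% CO2-93% N2, FCR3 and K1 alike.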

For assay [2], the system named is K1 strain, a drug resistant strain of Plasmodium falciparum. The assay is described as follows: In vitro antimalarial assay (p-LDH, Malstat), K1 strain. The format is cell-based. Particulars: P. falciparum K1 (drug resistant), 72 h culture, p-LDH readout, read-out: Antimalarial activity (IC50 value), Strain K1. The gist of the method:
as §1

For the molecule `CCOc1ccnc(Nc2nc(Nc3ccn4ccnc4c3)cc(N3CCCC3)n2)c1` [Example 145, N2-(4-ethoxypyridin-2-yl)-N4-(imidazo[1,2-a]pyridin-7-yl)-6-(pyrrolidin-1-yl)pyrimidine-2,4-diamine], the figures for the IC50 in assay [1] and in assay [2] were less than 100 nM and 100 to 1000 nM, respectively.

Take `COc1cc(CF)nc(Nc2nc(Nc3ccn4ccnc4c3)cc(N3CCCCC3)n2)c1` [Example 191, N2-(6-(fluoromethyl)-4-methoxypyridin-2-yl)-N4-(imidazo [1,2-a]pyridin-7-yl)-6-(piperidin-1-yl)pyrimidine-2,4-diamine]: the IC50 in assay [1] and in assay [2] was 100 to 1000 nM in each case.

Take `COC1CCN(c2cc(Nc3ccn4ccnc4c3)nc(Nc3cc(C)cc(C)n3)n2)CC1` [Example 131, N2-(4,6-dimethylpyridin-2-yl)-N4-(imidazo[1,2-a]pyridin-7-yl)-6-(4-methoxypiperidin-1-yl)pyrimidine-2,4-diamine]: the IC50 in assay [1] and in assay [2] was less than 100 nM in each case.

For `OCc1cccc(Nc2nc(Nc3ccn4ccnc4c3)cc(N3CCCCC3)n2)n1` [Example 192, (6-{[4-(imidazo[1,2-a]pyridin-7-ylamino)-6-(piperidin-1-yl)pyrimidin-2-yl]amino}pyridin-2-yl)methanol], the figures for the half-inhibitory concentration (IC50) in assay [1] and in assay [2] were 100 to 1000 nM and 1000 to 10000 nM, respectively.

For `CN(C)CCOc1ccc(Nc2nc(Nc3ccn4ccnc4c3)cc(N3CCOCC3)n2)cn1` [Example 61, N2-(6-(2-(dimethylamino)ethoxy)pyridin-3-yl)-N4-(imidazo[1,2-a]pyridin-7-yl)-6-morpholino-pyrimidine-2,4-diamine], the figures for the IC50 in assay [1] and in assay [2] were 100 to 1000 nM and 1000 to 10000 nM, respectively.

For `CC(C)(C)c1cccc(Nc2nc(Nc3ccn4ccnc4c3)cc(N3CCOCC3)n2)n1` [Example 124, N2-(6-(tert-butyl)pyridin-2-yl)-N4-(imidazo[1,2-a]pyridin-7-yl)-6-morpholinopyrimidine-2,4-diamine], the concentration for half-maximal inhibition (IC50) in assay [1] and in assay [2] was 100 to 1000 nM throughout.

For the molecule `COc1cncc(Nc2nc(Nc3ccn4ccnc4c3)cc(N3CCOCC3)n2)c1` [Example 19, N4-(Imidazo[1,2-a]pyridin-7-yl)-N2-(5-methoxypyridin-3-yl)-6-morpholinopyrimidine-2,4-diamine], the half-maximal inhibitory concentration (IC50) in assay [1] and in assay [2] was 100 to 1000 nM each time.

`Fc1cccnc1Nc1nc(Nc2ccn3ccnc3c2)cc(N2CCOCC2)n1` [Example 20, N2-(3-Fluoropyridin-2-yl)-N4-(imidazo[1,2-a]pyridin-7-yl)-6-morpholinopyrimidine-2,4-diamine]: the IC50 in assay [1] and in assay [2] was 100 to 1000 nM each time.

On to `CC(C)(C)c1ccnc(Nc2nc(Nc3ccn4ccnc4c3)cc(N3CCOCC3)n2)c1` [Example 67, N2-(4-(tert-butyl)pyridin-2-yl)-N4-(imidazo[1,2-a]pyridin-7-yl)-6-morpholinopyrimidine-2,4-diamine], for which the half-inhibitory concentration (IC50) in assay [1] and in assay [2] was 100 to 1000 nM each time.

Consider `Cc1cc(C)nc(Nc2nc(Nc3ccn4ccnc4c3)cc(N3CCN[C@@H](C)C3)n2)c1` [Example 31, (S)-N2-(4,6-dimethylpyridin-2-yl)-N4-(imidazo[1,2-a]pyridin-7-yl)-6-(3-methylpiperazin-1-yl)pyrimidine-2,4-diamine], for which the IC50 in assay [1] and in assay [2] was 100 to 1000 nM each time.

In the case of `Cc1cc(C)nc(Nc2nc(Nc3ccn4ccnc4c3)cc(N3C[C@@H]4OCCO[C@@H]4C3)n2)c1` [Example 194, N2-(4,6-dimethylpyridin-2-yl)-N4-(imidazo[1,2-a]pyridin-7-yl)-6-[(4aR,7aS)-tetrahydro-2H-[1,4]dioxino[2,3-c]pyrrol-6(3H)-yl]pyrimidine-2,4-diamine], the half-inhibitory concentration (IC50) in assay [1] and in assay [2] was less than 100 nM in each case.

For the molecule `CCc1ccnc(Nc2nc(Nc3ccn4ccnc4c3)cc(N3CCN[C@H](C)C3)n2)c1` [Example 102, (R)-N2-(4-ethylpyridin-2-yl)-N4-(imidazo[1,2-a]pyridin-7-yl)-6-(3-methylpiperazin-1-yl)pyrimidine-2,4-diamine], the IC50 in assay [1] and in assay [2] was 100 to 1000 nM throughout.

With `Cc1ccnc(Nc2nc(Nc3ccn4ccnc4c3)cc(-n3ccnc3)n2)c1` [Example 42, N4-(imidazo[1,2-a]pyridin-7-yl)-6-(1H-imidazol-1-yl)-N2-(4-methylpyridin-2-yl)pyrimidine-2,4-diamine], the IC50 in assay [1] and in assay [2] was 100 to 1000 nM each time.

Consider `c1cn2ccc(Nc3cc(N4CCOCC4)nc(Nc4ccc(OC5CCC5)nc4)n3)cc2n1` [Example 80, N2-(6-cyclobutoxypyridin-3-yl)-N4-(imidazo[1,2-a]pyridin-7-yl)-6-morpholinopyrimidine-2,4-diamine], for which the IC50 in assay [1] and in assay [2] was 100 to 1000 nM throughout.

For the molecule `COc1cccc(Nc2nc(Nc3ccn4ccnc4c3)cc(N3CCCCC3)n2)n1` [Example 144, N4-(imidazo[1,2-a]pyridin-7-yl)-N2-(6-methoxypyridin-2-yl)-6-(piperidin-1-yl)pyrimidine-2,4-diamine], the IC50 in assay [1] and in assay [2] was 100 to 1000 nM throughout.

As to `CC(C)COc1cccc(Nc2nc(Nc3ccn4ccnc4c3)cc(N3CCCC3)n2)n1` [Example 158, N4-(imidazo[1,2-a]pyridin-7-yl)-N2-(6-isobutoxypyridin-2-yl)-6-(pyrrolidin-1-yl)pyrimidine-2,4-diamine], the IC50 in assay [1] is less than 100 nM; in assay [2] it was 100 to 1000 nM.

In the case of `CCCOc1ccc(Nc2nc(Nc3ccn4ccnc4c3)cc(N3CCOCC3)n2)cn1` [Example 69, N4-(imidazo[1,2-a]pyridin-7-yl)-6-morpholino-N2-(6-propoxy-pyridin-3-yl)pyrimidine-2,4-diamine], the IC50 in assay [1] was less than 100 nM; in assay [2], 100 to 1000 nM.

As for `CCc1ccnc(Nc2nc(Nc3ccn4ccnc4c3)cc(N3CCC(CO)CC3)n2)c1` [Example 119, (1-(2-((4-ethylpyridin-2-yl)amino)-6-(imidazo[1,2-a]pyridin-7-ylamino)pyrimidin-4-yl)piperidin-4-yl)methanol], the 50% inhibitory concentration (IC50) in assay [1] and in assay [2] was less than 100 nM throughout.

For the molecule `CCc1ccnc(Nc2nc(Nc3ccn4ccnc4c3)cc(N3CC(O)C3)n2)c1` [Example 115, 1-(2-((4-ethylpyridin-2-yl)amino)-6-(imidazo[1,2-a]pyridin-7-ylamino)pyrimidin-4-yl)azetidin-3-ol], the 50% inhibitory concentration (IC50) in assay [1] and in assay [2] was less than 100 nM throughout.

For the molecule `CCCCc1cc(CC)cc(Nc2nc(Nc3ccn4ccnc4c3)cc(N3CCCCC3)n2)n1` [Example 201, N2-(6-butyl-4-ethylpyridin-2-yl)-N4-(imidazo[1,2-a]pyridin-7-yl)-6-(piperidin-1-yl) pyrimidine-2,4-diamine], the IC50 in assay [1] and in assay [2] was 100 to 1000 nM throughout.

Consider `CCc1ccnc(Nc2nc(Nc3ccn4ccnc4c3)cc(N3CC[C@@H](N(C)C)C3)n2)c1` [Example 125, (R)-6-(3-(dimethylamino)pyrrolidin-1-yl)-N2-(4-ethylpyridin-2-yl)-N4-(imidazo[1,2-a]pyridin-7-yl)pyrimidine-2,4-diamine], for which the half-maximal inhibitory concentration (IC50) in assay [1] and in assay [2] was less than 100 nM each time.

Take `Cc1ccnc(Nc2nc(Nc3ccn4ccnc4c3)cc(N3CCN(C)[C@@H](C)C3)n2)c1` [Example 35, (S)-6-(3,4-dimethylpiperazin-1-yl)-N4-(imidazo[1,2-a]pyridin-7-yl)-N2-(4-methylpyridin-2-yl)pyrimidine-2,4-diamine]: the IC50 in assay [1] and in assay [2] was 1000 to 10000 nM throughout.

For `CCc1ccnc(Nc2nc(Nc3ccn4ccnc4c3)cc(N3CCOCCOCCOCC3)n2)c1` [Example 120, N2-(4-ethylpyridin-2-yl)-N4-(imidazo[1,2-a]pyridin-7-yl)-6-(1,4,7-trioxa-10-azacyclododecan-10-yl)pyrimidine-2,4-diamine], the IC50 in assay [1] and in assay [2] was 1000 to 10000 nM throughout.

For the molecule `Cc1nc(Nc2nc(Nc3ccn4ccnc4c3)cc(N3CCOCC3)n2)cc(C2CC2)c1F` [Example 53, N2-(4-Cyclopropyl-5-fluoro-6-methylpyridin-2-yl)-N4-(imidazo [1,2-a]pyridin-7-yl)-6-morpholinopyrimidine-2,4-diamine], the IC50 in assay [1] and in assay [2] was 100 to 1000 nM each time.

On to `CCc1ccnc(Nc2nc(Nc3ccn4ccnc4c3)cc(N3CCC3)n2)c1` [Example 118, 6-(azetidin-1-yl)-N2-(4-ethylpyridin-2-yl)-N4-(imidazo[1,2-a]pyridin-7-yl)pyrimidine-2,4-diamine], for which the IC50 in assay [1] and in assay [2] was less than 100 nM throughout.

With `Cc1cccc(Nc2nc(Nc3ccn4ccnc4c3)cc(N3CCN(C)[C@@H](C)C3)n2)n1` [Example 40, (S)-6-(3,4-dimethylpiperazin-1-yl)-N4-(imidazo[1,2-a]pyridin-7-yl)-N2-(6-methylpyridin-2-yl)pyrimidine-2,4-diamine], the concentration for half-maximal inhibition (IC50) in assay [1] and in assay [2] was 1000 to 10000 nM throughout.

For `Cc1ccc(Nc2nc(Nc3ccn4ccnc4c3)cc(N3CCCCC3)n2)nc1` [Example 26, N4-(imidazo[1,2-a]pyridin-7-yl)-N2-(5-methylpyridin-2-yl)-6-(piperidin-1-yl)pyrimidine-2,4-diamine], the concentration for half-maximal inhibition (IC50) in assay [1] and in assay [2] was less than 100 nM in each case.

For the molecule `c1cc(Nc2nc(Nc3ccn4ccnc4c3)cc(N3CCOCC3)n2)nc(C2CC2)c1` [Example 110, N2-(6-cyclopropylpyridin-2-yl)-N4-(imidazo[1,2-a]pyridin-7-yl)-6-morpholinopyrimidine-2,4-diamine], the 50% inhibitory concentration (IC50) was less than 100 nM in assay [1] and 100 to 1000 nM in assay [2].

Regarding `CCc1ccnc(Nc2nc(Nc3ccn4ccnc4c3)cc(N3CCN(C)[C@H](C)C3)n2)c1` [Example 104, (R)-6-(3,4-dimethylpiperazin-1-yl)-N2-(4-ethylpyridin-2yl)-N4-(imidazo[1,2-a]pyridin-7-yl)pyrimidine-2,4-diamine], the values for the IC50 in assay [1] and in assay [2] were 100 to 1000 nM and 1000 to 10000 nM, respectively.
